Laboratory results reported in US12297196B2, “Condensed bicyclic heterocyclic derivatives as pest control agents” (Bayer Aktiengesellschaft, priority 2019, dated 2025).

How the values were obtained:
[1] = log P by HPLC on reversed-phase column (C18), neutral range; assay type: physicochemical; details: ammonium carbonate in water / acetonitrile
Experimental: The log P values were determined according to EEC Directive 79/831 Annex V.A8 by HPLC (high-performance liquid chromatography) on a reversed-phase column (C18) using the following methods: ^[b] The log P value is determined by LC-UV measurement in the neutral range using 79 mg/l ammonium carbonate in water and acetonitrile as mobile phases (linear gradient from 10% acetonitrile to 95% acetonitrile). Calibration was carried out using a homologous series of straight-chain alkan-2-ones (having 3 to 16 carbon atoms) with known log P values. The values between successive alkanones are determined by linear regression.

[2] = tested on: green peach aphids (Myzus persicae); experiment: Myzus persicae oral test; assay type: in vivo; details: 120 h, after 5 days, read-out: efficacy in %
Experimental: Myzus Persicae—Oral Test • Solvent: 100 parts by weight of acetone To produce a suitable active compound formulation, 1 part by weight of active compound is dissolved using the specified parts by weight of solvent and made up with water until the desired concentration is attained. 50 μl of the active compound preparation are transferred into microtitre plates and made up to a final volume of 200 μl with 150 μl of IPL41 insect medium (33%+15% sugar). Subsequently, the plates are sealed with parafilm, which a mixed population of green peach aphids (Myzus persicae) within a second microtitre plate is able to puncture and imbibe the solution through. After 5 days, the efficacy in % is determined. 100% means that all the aphids have been killed; 0% means that no aphids have been killed.

[3] = tested on: mustard beetle (Phaedon cochleariae); experiment: Comparative experiment: Phaedon cochleariae spray test (PHAECO); assay type: in vivo; details: 168 h, 7 dat, read-out: % efficacy; for Emax at 4 g/ha: 4 g of ai/ha; for Emax at 20 g/ha: 20 g of ai/ha
Experimental: Phaedon Cochleariae—Spray Test (PHAECO)
(§1) • Solvent: 78.0 parts by weight of acetone • 1.5 parts by weight of dimethylformamide • Emulsifier: alkylaryl polyglycol ether
(§2) To produce a suitable active compound formulation, 1 part by weight of active compound is dissolved using the stated parts by weight of solvent and made up with water containing an emulsifier concentration of 1000 ppm until the desired concentration is attained. To produce further test concentrations, the formulation is diluted with emulsifier-containing water.
Disks of Chinese cabbage leaves (Brassica pekinensis) are sprayed with an active compound formulation of the desired concentration and, after drying, populated with larvae of the mustard beetle (Phaedon cochleariae).
After the desired period of time, the efficacy in % is determined. 100% means that all the beetle larvae have been killed; 0% means that no beetle larvae have been killed.

[4] = tested on: green peach aphid (Myzus persicae); experiment: Myzus persicae spray test; assay type: in vivo; details: foliar, 120 h, after 5 days, Chinese cabbage leaf disks, read-out: efficacy in %
Experimental: Myzus Persicae—Spray Test
(§3) • Solvent: 78 parts by weight of acetone • 1.5 parts by weight of dimethylformamide • Emulsifier: alkylaryl polyglycol ether
as §2
Disks of Chinese cabbage leaves (Brassica pekinensis) infested by all stages of the green peach aphid (Myzus persicae) are sprayed with an active compound formulation of the desired concentration.
After 5 days, the efficacy in % is determined. 100% means that all the aphids have been killed; 0% means that no aphids have been killed.

[5] = tested on: green peach aphid (Myzus persicae); experiment: Comparative experiment: Myzus persicae spray test (MYZUPE); assay type: in vivo; details: 120 h, 5 dat, read-out: % efficacy; for Emax at 4 g/ha: 4 g of ai/ha; for Emax at 20 g/ha: 20 g of ai/ha; for Emax at 100 g/ha: 100 g of ai/ha
Experimental: Myzus Persicae—Spray Test (MYZUPE)
as §1, §2
Disks of Chinese cabbage leaves (Brassica pekinensis) infested by all stages of the green peach aphid (Myzus persicae) are sprayed with an active compound preparation of the desired concentration.
After the desired period of time, the efficacy in % is determined. 100% means that all the aphids have been killed; 0% means that no aphids have been killed.

[6] = tested on: fall armyworm (Spodoptera frugiperda); experiment: Spodoptera frugiperda spray test; assay type: in vivo; details: foliar, 168 h, after 7 days, corn leaf disks, caterpillars, read-out: efficacy in %
Experimental: Spodoptera Fruaiperda—Spray Test
as §1, §2
Leaf disks of corn (Zea mays) are sprayed with an active compound formulation of the desired concentration and, after drying, populated with caterpillars of the fall armyworm (Spodoptera frugiperda).
After 7 days, the efficacy in % is determined. 100% means that all the caterpillars have been killed; 0% means that no caterpillar has been killed.

[7] = tested on: armyworm (Spodoptera frugiperda); experiment: Comparative experiment: Spodoptera frugiperda spray test (SPODFR); assay type: in vivo; details: 168 h, 7 dat, read-out: % efficacy; for Emax at 0.8 g/ha: 0.8 g of ai/ha; for Emax at 4 g/ha: 4 g of ai/ha; for Emax at 20 g/ha: 20 g of ai/ha
Experimental: Spodoptera Fruaiperda—Spray Test (SPODFR)
as §1, §2
Leaf disks of corn (Zea mays) are sprayed with an active compound formulation of the desired concentration and, after drying, populated with caterpillars of the armyworm (Spodoptera frugiperda).
After the desired period of time, the efficacy in % is determined. 100% means that all the caterpillars have been killed; 0% means that no caterpillar has been killed.

[8] = tested on: mustard beetle Phaedon cochleariae; experiment: Phaedon cochleariae spray test; assay type: in vivo; details: 100 g/ha; after 7 days; Chinese cabbage leaf disks, larvae
Experimental: Phaedon Cochleariae—Spray Test
as §1, §2
Disks of Chinese cabbage leaves (Brassica pekinensis) are sprayed with an active compound formulation of the desired concentration and, after drying, populated with larvae of the mustard beetle Phaedon cochleariae).
After 7 days, the efficacy in % is determined. 100% means that all the beetle larvae have been killed; 0% means that no beetle larvae have been killed.

Diabrotica balteata = Diabrotica balteata spray test; assay type: in vivo; details: topical, 168 h, 100 g/ha (=32 μg/cavity), after 7 days, sprayed germinated wheat grains, beetle larvae, read-out: efficacy in %
Experimental: Diabrotica balteata—Spray Test
as §3, §2
Pre-swollen wheat grains (Triticum aestivum) are incubated in a multiwell plate filled with agar and a little water for one day (5 seed grains per cavity). The germinated wheat grains are sprayed with an active compound formulation of the desired concentration. Subsequently, each cavity is infected with 10−20 beetle larvae of Diabrotica balteata.
After 7 days, the efficacy in % is determined. 100% means that all wheat plants have grown as in the untreated, uninfected control; 0% means that no wheat plant has grown.

[9] = tested on: greenhouse red spider mite (Tetranychus urticae); experiment: Tetranychus urticae spray test, OP-resistant; assay type: in vivo; details: 100 g/ha, after 6 days, bean leaf disks
Experimental: Tetranychus Urticae—Spray Test, OP-Resistant
as §1, §2
Disks of bean leaves (Phaseolus vulgaris) infested with all stages of the greenhouse red spider mite (Tetranychus urticae) are sprayed with an active compound formulation of the desired concentration.
After 6 days, the efficacy in % is determined. 100% means that all the spider mites have been killed; 0% means that no spider mites have been killed.

SMILES | pest or weed control at 0.8 ppm [2] | pest or weed control at 4 ppm [2] | pest or weed control at 100 g/ha [4] | pest or weed control at 100 g/ha [6] | pest or weed control at 100 g/ha (Diabrotica balteata) | further results
CCSc1c(-c2nc3cc(C(F)(F)F)cnc3n2C)ncc2cc(C3(C#N)CC3)ccc12 [1-[4-Ethylsulfanyl-3-[3-methyl-6-(trifluoromethyl)imidazo[4,5-b]pyridin-2-yl]-7-isoquinolyl]cyclopropanecarbonitrile] |  |  |  |  |  | chromatographic logP [1]: 3.67
CCSc1c(-c2nc3cc(C(F)(F)F)cnc3n2C)ncc2cc(CC#N)ccc12 [2-[4-Ethylsulfanyl-3-[3-methyl-6-(trifluoromethyl)imidazo[4,5-b]pyridin-2-yl]-7-isoquinolyl]acetonitrile] |  |  |  |  |  | chromatographic logP [1]: 3.22
CCSc1c(-c2nc3cc(C(F)(F)F)cnc3n2C)ncc2cc(Br)ccc12 [7-Bromo-4-ethylsulfanyl-3-[3-methyl-6-(trifluoromethyl)imidazo[4,5-b]pyridin-2-yl]isoquinoline] |  |  |  |  |  | chromatographic logP [1]: 4.36
CCS(=O)(=O)c1c(-c2nc3cc(C(F)(F)F)cnc3n2C)ncc2cc(C3(C#N)CC3)ccc12 [Example I-1, 1-[4-Ethylsulfonyl-3-[3-methyl-6-(trifluoromethy)imidazo[4,5-b]pyridin-2-yl]-7-isoquinolyl]cyclopropanecarbonitrile] | 90% | 100% | 90% | 100% |  | Emax at 4 g/ha [3]: 100%; Emax at 20 g/ha [3]: 100%; Emax at 4 g/ha [5]: 70%; Emax at 20 g/ha [5]: 90%; Emax at 100 g/ha [5]: 90%; Emax at 0.8 g/ha [7]: 83%; Emax at 4 g/ha [7]: 100%; Emax at 20 g/ha [7]: 100%; efficacy in % [8]: 100%; chromatographic logP [1]: 3.02
CCS(=O)(=O)c1c(-c2nc3cc(C(F)(F)F)ncc3n2C)ncc2cc(C3(C#N)CC3)ccc12 [Example I-2] | 90% | 100% | 90% | 100% | 100% | 
CCS(=O)(=O)c1c(-c2nc3cc(C(F)(F)C(F)(F)F)ccc3o2)ncc2cc(C3(C#N)CC3)ccc12 [Example I-3] |  |  |  | 100% | 100% | 
CCS(=O)(=O)c1c(-c2nc3cc(C(F)(F)C(F)(F)F)cnc3n2C)ncc2cc(C3(C#N)CC3)ccc12 [Example I-4] | 100% | 100% | 100% | 100% | 100% | 
CCS(=O)(=O)c1c(-c2nc3cc(OC(F)(F)C(F)(F)F)cnc3n2C)ncc2cc(C3(C#N)CC3)ccc12 [Example I-5] |  | 100% | 90% | 100% |  | 
CCS(=O)(=O)c1c(-c2nc3cc(C(F)(F)F)ccc3n2C)ncc2cc(C3(C#N)CC3)ccc12 [Example I-6] |  | 100% | 90% | 100% | 100% | 
CCS(=O)(=O)c1c(-c2nc3cc(S(=O)(=O)C(F)(F)F)ccc3o2)ncc2cc(C3(C#N)CC3)ccc12 [Example I-7] |  |  |  | 100% | 100% | 
CCS(=O)(=O)c1c(-c2nc3cc(OC(F)(F)F)ccc3o2)ncc2cc(C3(C#N)CC3)ccc12 [Example I-8] |  |  |  | 100% | 100% | 
CCS(=O)(=O)c1c(-c2nc3cc(C(F)(F)F)nnc3n2C)ncc2cc(C3(C#N)CC3)ccc12 [Example I-9] | 90% |  | 90% | 100% | 100% | efficacy in % [9]: 90%
CCS(=O)(=O)c1c(-c2nc3cc(C(F)(F)C(F)(F)F)nnc3n2C)ncc2cc(C3(C#N)CC3)ccc12 [Example I-10] | 90% |  | 100% | 100% | 100% | 
CCS(=O)(=O)c1c(-c2nc3cc(OC(F)(F)F)cnc3n2C)ncc2cc(C3(C#N)CC3)ccc12 [Example I-11] | 100% | 100% | 100% | 100% | 100% | 
CCS(=O)(=O)c1c(-c2nc3cc(OC(F)(F)F)ccc3n2C)ncc2cc(C3(C#N)CC3)ccc12 [Example I-12] | 90% | 100% | 100% | 100% | 100% | 
CCS(=O)(=O)c1c(-c2nc3cc(C(F)(F)C(F)(F)F)ncc3n2C)ncc2cc(C3(C#N)CC3)ccc12 [Example I-13] | 100% | 100% | 100% | 100% | 100% | 
CCS(=O)(=O)c1c(-c2nc3cc(C(F)(F)C(F)F)cnc3n2C)ncc2cc(C3(C#N)CC3)ccc12 [Example I-14] | 100% | 100% | 100% | 100% | 100% | 
CCS(=O)(=O)c1c(-c2nc3cc(C(F)(F)F)cnc3n2C)ncc2ccccc12 [I′-47, reference compound] |  |  |  |  |  | Emax at 4 g/ha [3]: 0%; Emax at 20 g/ha [3]: 67%; Emax at 0.8 g/ha [7]: 0%; Emax at 4 g/ha [7]: 33%; Emax at 20 g/ha [7]: 67%
CCS(=O)(=O)c1c(-c2nc3cc(C(F)(F)F)cnc3n2C)ncc2cc(C(F)(F)F)ccc12 [I′-51, reference compound] |  |  |  |  |  | Emax at 4 g/ha [5]: 0%; Emax at 20 g/ha [5]: 0%; Emax at 100 g/ha [5]: 90%
